Measured values from patent US6448252B1, “Treatment of equine protozoal myeloencephalitis” (IDEXX Pharmaceuticals, Inc., priority 1996, dated 2002).

Assays:
[1] = system: Plasmodium berghei yoelii; details: rodent malaria; cited from earlier work
[2] = system: Sarcocystis neurona; details: EPM in equines; sulfadiazine as the sulfonamide given with pyrimethamine
Procedure: The amounts of each component are based on a liquid suspension having a total volume of about 1 liter. As mentioned above, a useful dosage, e.g., for a 1,000 pound horse infected with Sarcocystis neurona (as evidenced by the presence of the protozoan in a sample from the subject's cerebrospinal fluid) is about 30 mL of the suspension, once a day, given on an empty stomach in the morning.

[3] = horses, oral, 1 mg pyrimethamine/kg once a day for 10 days; cited from earlier work

For `Nc1ccc(S(=O)(=O)Nc2ncccn2)cc1` [sulfadiazine], the causal prophylactic activity [1] is listed as “causal prophylactic activity” and the rate of efficacy [2] is listed as greater than 70%.

For `CCc1nc(N)nc(N)c1-c1ccc(Cl)cc1` [pyrimethamine], the toxicological problem [3] is listed as “does not present a serious toxicological problem”.

For `COc1cc(NC(C)CCCN)c2ncccc2c1` (stereo not shown) [Primaquine diphosphate], the causal prophylactic activity [1] is listed as “causal prophylactic activity”.
